The results in this text go back to PubChem BioAssay AID192 (DTP/NCI, 2004).

The assay deals with BDF1 mice, B16 melanoma ip, median survival T/C. Kind of assay: NCI In Vivo Anticancer Drug Screen. Data for tumor model B16 Melanoma (intraperitoneal) in B6D2F1 (BDF1) mice. Conditions: endpoint: median survival time, higher = longer survival. Put shortly:
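Each result divides a survival or tumor-size measurement in the compound-treated group by the same measurement in the vehicle group.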

The mark [1] stands for this setting: dose: 6.25 mg/kg/injection, schedule: Q01DX009 (ip), vehicle: Klucel (hydroxypropylcellulose) (HPC).
[2] abbreviates: dose: 12.5 mg/kg/injection, schedule: Q01DX009 (ip), vehicle: Klucel (hydroxypropylcellulose) (HPC).
[3] abbreviates: dose: 25.0 mg/kg/injection, schedule: Q01DX009 (ip), vehicle: Klucel (hydroxypropylcellulose) (HPC).
[4] abbreviates: dose: 50.0 mg/kg/injection, schedule: Q01DX009 (ip), vehicle: Klucel (hydroxypropylcellulose) (HPC).
Setting [5] is: dose: 100.0 mg/kg/injection, schedule: Q04DX003 (ip), vehicle: saline with Tween-80.
Where [6] appears, read: dose: 200.0 mg/kg/injection, schedule: Q04DX003 (ip), vehicle: saline with Tween-80.
Setting [7] is: dose: 400.0 mg/kg/injection, schedule: Q04DX003 (ip), vehicle: saline with Tween-80.
The mark [8] stands for this setting: dose: 100.0 mg/kg/injection, schedule: Q01DX009 (ip), vehicle: Klucel (hydroxypropylcellulose) (HPC).
Setting [9] is: dose: 200.0 mg/kg/injection, schedule: Q01DX009 (ip), vehicle: Klucel (hydroxypropylcellulose) (HPC).
Where [10] appears, read: dose: 6.25 mg/kg/injection, schedule: Q01DX009 (ip), vehicle: saline with Tween-80.
The mark [11] stands for this setting: dose: 12.5 mg/kg/injection, schedule: Q01DX009 (ip), vehicle: saline with Tween-80.
The mark [12] stands for this setting: dose: 25.0 mg/kg/injection, schedule: Q01DX009 (ip), vehicle: saline with Tween-80.
The mark [13] stands for this setting: dose: 50.0 mg/kg/injection, schedule: Q01DX009 (ip), vehicle: saline with Tween-80.
Where [14] appears, read: dose: 100.0 mg/kg/injection, schedule: Q01DX009 (ip), vehicle: saline with Tween-80.
[15] abbreviates: dose: 200.0 mg/kg/injection, schedule: Q01DX009 (ip), vehicle: saline with Tween-80.
Where [16] appears, read: dose: 12.5 mg/kg/injection, schedule: Q01DX009 (ip), vehicle: saline.
The mark [17] stands for this setting: dose: 25.0 mg/kg/injection, schedule: Q01DX009 (ip), vehicle: saline.
Setting [18] is: dose: 50.0 mg/kg/injection, schedule: Q01DX009 (ip), vehicle: saline.
[19] abbreviates: dose: 100.0 mg/kg/injection, schedule: Q01DX009 (ip), vehicle: saline.
Setting [20] is: dose: 200.0 mg/kg/injection, schedule: Q01DX009 (ip), vehicle: saline.

Values joined by “and” are separate entries in the source; they are usually repeats but may differ in a detail not shown here. Equal entries are not always repeated. Toxic doses and inconclusive results are not listed.

As to `[Cl][Mn][Cl]`, the T/C (dose: 6.25 mg/kg/injection, schedule: Q01DX009 (ip), vehicle: water) is 100 % of control; the T/C (dose: 12.5 mg/kg/injection, schedule: Q01DX009 (ip), vehicle: water) was 98 % of control; the T/C (dose: 17.8 mg/kg/injection, schedule: Q01DX009 (ip), vehicle: saline) was 104 % of control; the T/C (dose: 17.8 mg/kg/injection, schedule: Q01DX009 (sc), vehicle: water) was 101 % of control; the T/C (dose: 25.0 mg/kg/injection, schedule: Q01DX009 (ip), vehicle: water) was 109 % of control; the T/C (dose: 26.7 mg/kg/injection, schedule: Q01DX009 (ip), vehicle: saline) is 110 % of control and 114 % of control. For the same compound, the T/C (dose: 26.7 mg/kg/injection, schedule: Q01DX009 (sc), vehicle: water) is 99 % of control; the T/C (dose: 40.0 mg/kg/injection, schedule: Q01DX009 (ip), vehicle: saline) was 107 % of control and 117 % of control; the T/C (dose: 40.0 mg/kg/injection, schedule: Q01DX009 (sc), vehicle: water) was 104 % of control; the T/C (dose: 50.0 mg/kg/injection, schedule: Q01DX009 (ip), vehicle: water) is 114 % of control; the T/C (dose: 60.0 mg/kg/injection, schedule: Q01DX009 (ip), vehicle: saline) was 106 % of control and 119 % of control; the T/C (dose: 60.0 mg/kg/injection, schedule: Q01DX009 (ip), vehicle: water) is 163 % of control. Further, the T/C was 104 % of control (dose: 60.0 mg/kg/injection, schedule: Q01DX009 (sc), vehicle: water) and 104 % of control (dose: 90.0 mg/kg/injection, schedule: Q01DX009 (sc), vehicle: water).

As to `O=C1N(Br)C(=O)C(c2ccc(Cl)cc2)(c2ccc(Cl)cc2)N1Br`, the T/C is, setting by setting: under setting [1], 103 % of control; under setting [2], 98 % of control; under setting [3], 100 % of control; under setting [4], 88 % of control.

As to `CCCC(C(=O)O)C(CCC)C(=O)O` (stereo not given), the T/C by setting is: under setting [5], 97 % of control; under setting [6], 88 % of control; under setting [7], 88 % of control.

Take `CC(=O)OCC(=O)[C@@]12OC(C)(C)O[C@@H]1C[C@H]1[C@@H]3CC(C=O)=C4C=C(OCCCl)CC[C@]4(C)[C@@]3(F)[C@@H](O)C[C@@]12C`: the T/C runs as follows: (dose: 25.0 mg/kg/injection, schedule: Q04DX003 (ip), vehicle: saline with Tween-80) 111 % of control; (dose: 50.0 mg/kg/injection, schedule: Q04DX003 (ip), vehicle: saline with Tween-80) 112 % of control; under setting [5], 115 % of control; under setting [6], 110 % of control; under setting [7], 109 % of control.

Turning to `CC[C@@H]1C[C@H]2CC3c4[nH]c5ccccc5c4CCN(C2)C31`, the T/C was 110 % of control (dose: 5.0 mg/kg/injection, schedule: Q01DX009 (ip), vehicle: saline with Tween-80); 107 % of control (dose: 10.0 mg/kg/injection, schedule: Q01DX009 (ip), vehicle: saline with Tween-80); 97 % of control (dose: 20.0 mg/kg/injection, schedule: Q01DX009 (ip), vehicle: saline with Tween-80).

Regarding `CCN(C(=O)Nc1ccccc1OC)c1ccccc1`, the T/C under setting [8] was 89 % of control.

Take `O=C(Oc1ccc(Cl)cc1)c1ccc(Cl)cc1`: where the note is “dose: 75.0 mg/kg/injection, schedule: Q04DX003 (ip), vehicle: Klucel (hydroxypropylcellulose) (HPC)”, the T/C is 100 % of control.

Take `CNC(=S)N/N=C(\C=N\NC(=S)NC)c1ccc(C)cc1`: the T/C was 101 % of control under setting [4], 90 % of control under setting [8] and 89 % of control under setting [9].

Regarding `CN(C)CCCN1c2ccccc2Sc2ccccc21`, the T/C (dose: 4.6 mg/kg/injection, schedule: Q01DX009 (ip), vehicle: saline) was 111 % of control; the T/C (dose: 9.3 mg/kg/injection, schedule: Q01DX009 (ip), vehicle: saline) was 111 % of control; the T/C (dose: 18.75 mg/kg/injection, schedule: Q01DX009 (ip), vehicle: saline with Tween-80) is 101 % of control; the T/C (dose: 18.75 mg/kg/injection, schedule: Q01DX009 (ip), vehicle: saline) was 120 % of control; the T/C (dose: 35.5 mg/kg/injection, schedule: Q01DX009 (ip), vehicle: saline) is 111 % of control; the T/C (dose: 37.5 mg/kg/injection, schedule: Q01DX009 (ip), vehicle: saline with Tween-80) was 97 % of control. Besides, the T/C (dose: 75.0 mg/kg/injection, schedule: Q01DX009 (ip), vehicle: saline with Tween-80) is 95 % of control.

`Nc1ccc(S(=O)(=O)N/N=C/c2ccccc2[N+](=O)[O-])cc1`: the T/C was 115 % of control (dose: 3.13 mg/kg/injection, schedule: Q01DX009 (ip), vehicle: saline with Tween-80); 96 % of control and 123 % of control under setting [10]; 99 % of control and 122 % of control under setting [11]; 105 % of control under setting [12]; 118 % of control under setting [13].

For `Cc1ccc(NC(=O)Nc2cccc(Cl)c2C)cc1C`, the T/C runs as follows: under setting [3], 98 % of control; under setting [4], 86 % of control; under setting [8], 92 % of control.

Take `O=C(O)C1OC1c1ccccc1` (stereo not given): the T/C reads like this: under setting [14], 97 % of control; under setting [15], 102 % of control; (dose: 400.0 mg/kg/injection, schedule: Q01DX009 (ip), vehicle: saline with Tween-80) 100 % of control.

As for `Cc1cc[n+](CCc2ccccc2)cc1`, the T/C by setting is: under setting [10], 92 % of control; under setting [11], 88 % of control; under setting [12], 95 % of control; under setting [13], 88 % of control.

Take `COC(=O)C1C2CC3c4[nH]c5cc(OC)ccc5c4CCN3CC2CC(OC(=O)c2cc(OC)c(OC)c(OC)c2)C1OC` (stereo not given): the T/C by setting is: (dose: 3.12 mg/kg/injection, schedule: Q01DX009 (ip), vehicle: Klucel (hydroxypropylcellulose) (HPC)) 105 % of control; under setting [1], 105 % of control; under setting [2], 110 % of control; under setting [3], 97 % of control; under setting [4], 90 % of control.

Turning to `CCCNCCCN`, the T/C under setting [16] was 102 % of control, the T/C under setting [17] was 105 % of control and the T/C under setting [18] was 89 % of control.

As to `O=C(Cn1cc(F)c(=O)[nH]c1=O)c1ccco1`, the T/C is 94 % of control under setting [4], 100 % of control under setting [8] and 94 % of control under setting [9].

Regarding `CCCCCCCCCCCCCCCCCC(=O)Nc1ccn(C2OC(CO)C(O)C2O)c(=O)n1` (stereo not given), the T/C is 154 % of control under setting [11]; 165 % of control and 203 % of control under setting [12].

On to `Nc1cccs1`, for which the T/C by setting is: under setting [16], 108 % of control; under setting [17], 99 % of control; under setting [18], 94 % of control.

As to `O=[N+]([O-])c1ccc(C(O)CC(O)(C(F)(F)F)C(F)(F)F)cc1` (stereo not given), the T/C was 97 % of control (dose: 100.0 mg/kg/injection, schedule: Q04DX003 (ip), vehicle: Klucel (hydroxypropylcellulose) (HPC)); 97 % of control (dose: 200.0 mg/kg/injection, schedule: Q04DX003 (ip), vehicle: Klucel (hydroxypropylcellulose) (HPC)); 95 % of control (dose: 400.0 mg/kg/injection, schedule: Q04DX003 (ip), vehicle: Klucel (hydroxypropylcellulose) (HPC)).

Turning to `COc1cc(C=O)cc(O)c1O`, the T/C is 95 % of control under setting [19] and 111 % of control under setting [20].

For the compound `C#CC(C)(O)c1ccccc1` (stereo not given), the T/C is, setting by setting: under setting [4], 100 % of control; under setting [8], 100 % of control; under setting [9], 103 % of control.

With `C[C@]12CC[C@H](OC(=O)Cc3ccc(N(CCCl)CCCl)cc3)CC1=CC[C@@H]1[C@@H]2CC[C@]2(C)C(=O)CC[C@@H]12`, the T/C was 92 % of control under setting [14]; 115 % of control under setting [5]; 97 % of control under setting [15]; 105 % of control under setting [6]; 105 % of control under setting [7].

With `CCCCCCCCCCCC(O)CCCC` (stereo not given), the T/C reads like this: under setting [1], 99 % of control; under setting [2], 104 % of control.

As to `COC1=C(O)C(C(O)CO)OC1=O` (stereo not given), the T/C was 99 % of control under setting [19]; 110 % of control under setting [20]; 108 % of control (dose: 400.0 mg/kg/injection, schedule: Q01DX009 (ip), vehicle: saline).
